Measurements from patent publication US20240285646A1, “METHODS AND COMPOSITIONS FOR LIPID FORMULATION OF LIPOPHILIC SMALL MOLECULE THERAPIES OF THE HETEROCYCLIC TYPE” (Neuronascent, Inc., priority 2021, published 2024).
“And” between values parts separate entries of the source, which are not always exact repeats. Equal values may be shown once.

Tests used:
[1] = Phase 1A pharmacokinetics of oral NNI-362 in 1% methylcellulose suspension (Cohorts A-E); format: in vivo, human
Description: (§1) A Phase 1A, randomized, placebo-controlled, single and multiple dose, dose-escalation study was conducted to evaluate the safety, tolerability and pharmacokinetics of oral NNI-362 in healthy aged volunteers 50 to 72 years of age. Subjects were fasted prior to dose administration. The plasma concentrations of NNI-362 were determined by a validated bioanalytical method using liquid chromatography-tandem mass spectrometry (LC-MS/MS). The analytical range was 25.0-25000 pg/ml, with 0.0500 ml sample volumes. The stable label d5-NNI-362 was used as the internal standard for this assay.
(§2) NNI-362 was formulated in 1% (w/v) methylcellulose in sterile water as an oral suspension that was administered to Cohorts A-E. NNI-362 was administered in a lipid-based formulation (medium-chain triglycerides, Kolliphor EL and beeswax; 95/3/2%; NNI-362 added to provide 120 mg/ml) oral suspension) for Cohorts F and G.
(§3) PK data analysis was performed on the measurable plasma concentrations of NNI-362. The plasma concentration data were evaluated using Phoenix 64® WinNonlin® software (Version 8.3) to perform noncompartmental analysis. Nominal blood collection times were used in data analysis. The dose administered in dose group was entered into the program as mg/subject.
(§4) The following PK parameters were determined for NNI-362 plasma concentrations for each subject: observed maximal plasma concentration (Cmax), observed time to reach Cmax (Tmax), area under the plasma concentration time curve up to the last blood collection time (AUClast), and extrapolated to infinity (AUCinf), the percent of AUCinf that was extrapolated (% Extrap AUCinf), terminal elimination half-life (t1/2), and mean residence time to infinity (MRTinf). Terminal t1/2, AUCinf, MRTinf could not be calculated in some subjects due to limited data or poor fit (r<0.8) of the terminal phase of the plasma concentration and time curve. Extrapolation of more than 20% of the AUC may result in unreliable values for the terminal parameters.

[2] = Phase 1A pharmacokinetics of oral NNI-362 in lipid-based formulation (Cohorts F and G); format: in vivo, human; conditions: for Extrap AUCinf / AUCinf / AUClast / Cmax / MRTinf / Tmax / t1/2 / AUC(0-inf) / AUC(0-t) / MRT inf / half-life: lipid formulation
Description: Exemplary Formulation F2 was prepared by slowly adding NNI-362 into a jar containing 100 mL of lipid-based MCT/Kolliphor EL/Beeswax (95/3/2% w/w) while mixing and then stirring until all powder is wet. The actual weight of NNI-362 was between 11.88 and 12.12 g to provide the nominal concentration of 120 mg/ml.
as §1, §2, §3, §4
The correlation coefficient for the terminal phase was determined using WinNonlin. Significant differences in selected pharmacokinetic parameters between the SAD and MAD dose groups of cohorts F and G were evaluated using the t-test (two tail, paired test; p<0.05).

[3] = Solubility of NNI-362; format: physicochemical
[4] = 60 mg oral, SAD, individual subjects
[5] = 120 mg oral, SAD, individual subjects
[6] = human, plasma, 60 mg oral, SAD, individual subjects
[7] = human, plasma, 120 mg oral, SAD, individual subjects
[8] = Cohort F, 120 mg oral, MAD, individual subjects
[9] = Cohort F, 120 mg oral, SAD, individual subjects
[10] = Cohort G, 240 mg oral, MAD, individual subjects
[11] = Cohort G, 240 mg oral, SAD, individual subjects
[12] = human, plasma, po, 120 mg, Cohort F, 120 mg oral, MAD, cohort mean
[13] = human, plasma, po, 120 mg, Cohort F, 120 mg oral, SAD, cohort mean
[14] = human, plasma, po, 120 mg, Cohort F, 120 mg oral, SAD, individual subjects
[15] = human, plasma, po, 240 mg, Cohort G, 240 mg oral, MAD, cohort mean
[16] = human, plasma, po, 240 mg, Cohort G, 240 mg oral, SAD, cohort mean

## CCOc1ccccc1NC(=S)N1CCCN(c2nc3cc(C)c(C)cc3cc2C#N)CC1 [NNI-362]
[1]; 20 mg oral, MAD, individual subjects
  Cmax: 0.0251 ng/mL
[1]; [4]
  AUClast: 0.623 ng·h/mL
  Cmax: 0.069 ng/mL and 0.0468 ng/mL and 0.0336 ng/mL
  Extrap AUCinf: 24.1%
  Tmax: 6 h and 24 h
[1]; [5]
  Cmax: 0.0426 ng/mL and 0.0601 ng/mL
  Extrap AUCinf: 54.5%
  Tmax: 6 h and 2 h
[1]; Cohort A, single oral dose of 10 mg per subject, LLOQ 25 pg/ml
  plasma concentrations of NNI-362: no plasma samples from these subjects contained quantifiable concentrations
[1]; Cohort B, 20 mg oral, two subjects, one plasma sample each
  plasma drug concentrations: > 0.025 ng/mL
[1]; [6]
  AUC(0-inf): 0.622 ng·h/mL
  MRT inf: 9.2 h
  half-life: 4.09 h
[1]; [7]
  AUC(0-inf): 0.908 ng·h/mL
  MRT inf: 5.5 h
  half-life: 13.7 h
[1]; human, plasma, po, 20 mg, 20 mg oral, MAD, individual subjects, read-out: Cmax
  Cmax: 0.0151 ng/mL
[1]; human, plasma, po, 20 mg, 20 mg oral, MAD, individual subjects, read-out: Tmax
  Tmax: 12 h
[1]; human, plasma, po, 60 mg, 60 mg oral, SAD, individual subjects
  AUC(0-t): 0.473 ng·h/mL
[1]; human, plasma, po, 120 mg, 120 mg oral, SAD, individual subjects
  AUC(0-t): 0.414 ng·h/mL
[1]; human, plasma, po, 120 mg, 120 mg oral, SAD, individual subjects, read-out: Cmax
  Cmax: 0.037 ng/mL
[2]; Cohort F, 120 mg oral, MAD, cohort mean
  Extrap AUCinf: 30.0%
[2]; [8]
  AUCinf: 1.28 ng·h/mL and 3.74 ng·h/mL and 8.95 ng·h/mL and 0.719 ng·h/mL and 2.44 ng·h/mL
  AUClast: 1.15 ng·h/mL and 2.68 ng·h/mL and 3.8 ng·h/mL and 0.525 ng·h/mL and 1.77 ng·h/mL and 0.179 ng·h/mL
  Cmax: 0.193 ng/mL and 0.144 ng/mL and 0.208 ng/mL and 0.0638 ng/mL and 0.126 ng/mL and 0.0404 ng/mL
  Extrap AUCinf: 9.78% and 28.4% and 57.5% and 26.9% and 27.7%
  MRTinf: 6.68 h and 19.3 h and 42.9 h and 9.7 h and 17.6 h
  Tmax: 6 h and 2 h and 8 h
[2]; Cohort F, 120 mg oral, SAD, cohort mean
  Extrap AUCinf: 43.8%
[2]; [9]
  AUCinf: 0.8 ng·h/mL and 0.511 ng·h/mL
  AUClast: 0.555 ng·h/mL and 1.21 ng·h/mL and 0.289 ng·h/mL and 0.561 ng·h/mL and 0.182 ng·h/mL
  Cmax: 0.101 ng/mL and 0.208 ng/mL and 0.0484 ng/mL and 0.0834 ng/mL and 0.0701 ng/mL and 0.0435 ng/mL
  Extrap AUCinf: 36.9% and 29.9% and 64.5%
  MRTinf: 10.2 h and 12.4 h
  Tmax: 6 h and 8 h and 2 h and 1 h and 4 h and 0.5 h
  t1/2: 6.15 h and 8.13 h
[2]; Cohort G, 240 mg oral, MAD, cohort mean
  Extrap AUCinf: 34.4%
[2]; [10]
  AUCinf: 4.52 ng·h/mL and 0.426 ng·h/mL and 4.23 ng·h/mL and 3.98 ng·h/mL and 0.975 ng·h/mL
  AUClast: 1.99 ng·h/mL and 0.235 ng·h/mL and 4 ng·h/mL and 2.61 ng·h/mL and 2.85 ng·h/mL and 0.569 ng·h/mL
  Cmax: 0.124 ng/mL and 0.059 ng/mL and 0.679 ng/mL and 0.221 ng/mL and 0.267 ng/mL and 0.0822 ng/mL
  Extrap AUCinf: 54.8% and 43.9% and 5.10% and 27.7% and 40.5%
  MRTinf: 39.5 h and 7.10 h and 9.51 h and 18.8 h and 13.5 h
  Tmax: 2 h and 6 h and 1 h
  t1/2: 26.2 h and 4.29 h and 5.10 h and 13.5 h and 9.24 h
[2]; Cohort G, 240 mg oral, SAD, cohort mean
  Extrap AUCinf: 28.3%
[2]; [11]
  AUCinf: 0.79 ng·h/mL and 2.09 ng·h/mL and 1.09 ng·h/mL
  AUClast: 0.103 ng·h/mL and 0.677 ng·h/mL and 0.243 ng·h/mL and 1.02 ng·h/mL and 0.88 ng·h/mL
  Cmax: 0.0523 ng/mL and 0.0316 ng/mL and 0.13 ng/mL and 0.0857 ng/mL and 0.0846 ng/mL and 0.21 ng/mL
  Extrap AUCinf: 14.4% and 51.1% and 19.3%
  MRTinf: 7.76 h and 36.9 h and 5.56 h
  Tmax: 2 h and 6 h and 1 h and 4 h
  t1/2: 2.6 h and 2.30 h
[2]; Formulation F2, Cohort F, 120 mg single dose, Day 1, K3 EDTA human plasma, patient SRI-F-005, 0 h
  Concentration: < LLOQ
[2]; Formulation F2, Cohort F, 120 mg single dose, Day 1, K3 EDTA human plasma, patient SRI-F-005, 12 h
  Concentration: < LLOQ
[2]; Formulation F2, Cohort F, 120 mg single dose, Day 1, K3 EDTA human plasma, patient SRI-F-005, 24 h
  Concentration: < LLOQ
[2]; human, plasma, oral, range over Cohorts F and G, SAD and MAD, read-out: Tmax values
  Tmax: 0.5 to 8 h
[2]; [12]
  AUC(0-inf): 3.43 ± 3.3 ng·h/mL
  AUC(0-t): 1.68 ng·h/mL
  MRT inf: 19.2 ± 14.3 h
  half-life: 12.2 ± 10.2 h
[2]; human, plasma, po, 120 mg, Cohort F, 120 mg oral, MAD, cohort mean, read-out: Cmax
  Cmax: 0.129 ng/mL
[2]; human, plasma, po, 120 mg, Cohort F, 120 mg oral, MAD, cohort mean, read-out: Cmax after multiple doses
  Cmax: 0.129 ± 0.0673 ng/mL
[2]; human, plasma, po, 120 mg, Cohort F, 120 mg oral, MAD, cohort mean, read-out: Tmax
  Tmax: 4.33 h
[2]; [13]
  AUC(0-inf): 0.59 ± 0.184 ng·h/mL
  AUC(0-t): 0.559 ng·h/mL
  MRT inf: 9.99 ± 2.55 h
  half-life: 6.24 ± 1.84 h
[2]; human, plasma, po, 120 mg, Cohort F, 120 mg oral, SAD, cohort mean, read-out: Cmax
  Cmax: 0.0924 ± 0.0606 ng/mL
[2]; human, plasma, po, 120 mg, Cohort F, 120 mg oral, SAD, cohort mean, read-out: Tmax
  Tmax: 3.58 h
[2]; [14]
  AUC(0-inf): 0.458 ng·h/mL
  MRT inf: 7.35 h
  half-life: 4.45 h
[2]; [15]
  AUC(0-inf): 2.83 ± 1.96 ng·h/mL
  AUC(0-t): 2.04 ng·h/mL
  MRT inf: 17.7 ± 13 h
  half-life: 11.7 ± 8.94 h
[2]; human, plasma, po, 240 mg, Cohort G, 240 mg oral, MAD, cohort mean, read-out: Cmax
  Cmax: 0.239 ± 0.23 ng/mL
[2]; human, plasma, po, 240 mg, Cohort G, 240 mg oral, MAD, cohort mean, read-out: Tmax
  Tmax: 3.17 h
[2]; [16]
  AUC(0-inf): 1.32 ± 0.681 ng·h/mL
  AUC(0-t): 0.585 ng·h/mL
  MRT inf: 16.7 ± 17.5 h
  half-life: 2.58 ± 0.25 h
[2]; human, plasma, po, 240 mg, Cohort G, 240 mg oral, SAD, cohort mean, read-out: Cmax
  Cmax: 0.099 ng/mL
[2]; human, plasma, po, 240 mg, Cohort G, 240 mg oral, SAD, cohort mean, read-out: Tmax
  Tmax: 2.83 h
[2]; human, plasma, po, 240 mg, Cohort G, 240 mg oral, SAD, cohort mean, read-out: mean Cmax
  Cmax: 0.099 ± 0.0639 ng/mL
[2]; human, plasma, po, 240 mg, Cohort G, 240 mg oral, SAD, individual subjects
  half-life: 2.8 h
[2]; oral, Formulation F2, Cohort F, 120 mg single dose, Day 1, K3 EDTA human plasma, patient SRI-F-005, 0.5 h
  concentration at 0.5 h: 0.0768 ng/mL
[2]; oral, Formulation F2, Cohort F, 120 mg single dose, Day 1, K3 EDTA human plasma, patient SRI-F-005, 1 h
  concentration at 1 h: 0.0834 ng/mL
[2]; oral, Formulation F2, Cohort F, 120 mg single dose, Day 1, K3 EDTA human plasma, patient SRI-F-005, 2 h
  concentration at 2 h: 0.0388 ng/mL
[2]; oral, Formulation F2, Cohort F, 120 mg single dose, Day 1, K3 EDTA human plasma, patient SRI-F-005, 4 h
  concentration at 4 h: 0.0253 ng/mL
[2]; oral, Formulation F2, Cohort F, 120 mg single dose, Day 1, K3 EDTA human plasma, patient SRI-F-005, 6 h
  concentration at 6 h: 0.0267 ng/mL
[2]; oral, Formulation F2, Cohort F, 120 mg single dose, Day 1, K3 EDTA human plasma, patient SRI-F-005, 8 h
  concentration at 8 h: 0.0263 ng/mL
[3]; common organic solvents
  solubility: soluble in common organic solvents
[3]; water/aqueous solutions
  solubility: insoluble in water/aqueous solutions
